Values quoted from earlier work in patent US12350300B2, “Use of dopamine producing products to increase vaccine efficacy” (Iowa State University Research Foundation, Inc., priority 2021, dated 2025).

Key:
longitudinal muscle = details: read-out: EC50, relaxation
mouse colitis = details: Herak-Perkovic 2001
circular muscle = details: read-out: EC50, contractions

EC50 (longitudinal muscle): 29 µM
EC50 (circular muscle): 6.3 µM
SMILES: NCCc1ccc(O)c(O)c1 [dopamine]
effect against the development of inflammation (mouse colitis): protective effect
